Earlier results, collected in US20190167750A1, “NUTRITIONAL SUPPLEMENTS FOR INCREASING MALE TESTOSTERONE LEVELS” (Innovus Pharmaceuticals, Inc., priority 2017, published 2019).

Columns and labels:
[1] = biological target: P-glycoprotein (Homo sapiens, UniProt P08183)
[2] = biological target: human CYP3A4 (Homo sapiens, UniProt P08684)
human CYP3A4, sequence (P08684 whole entry): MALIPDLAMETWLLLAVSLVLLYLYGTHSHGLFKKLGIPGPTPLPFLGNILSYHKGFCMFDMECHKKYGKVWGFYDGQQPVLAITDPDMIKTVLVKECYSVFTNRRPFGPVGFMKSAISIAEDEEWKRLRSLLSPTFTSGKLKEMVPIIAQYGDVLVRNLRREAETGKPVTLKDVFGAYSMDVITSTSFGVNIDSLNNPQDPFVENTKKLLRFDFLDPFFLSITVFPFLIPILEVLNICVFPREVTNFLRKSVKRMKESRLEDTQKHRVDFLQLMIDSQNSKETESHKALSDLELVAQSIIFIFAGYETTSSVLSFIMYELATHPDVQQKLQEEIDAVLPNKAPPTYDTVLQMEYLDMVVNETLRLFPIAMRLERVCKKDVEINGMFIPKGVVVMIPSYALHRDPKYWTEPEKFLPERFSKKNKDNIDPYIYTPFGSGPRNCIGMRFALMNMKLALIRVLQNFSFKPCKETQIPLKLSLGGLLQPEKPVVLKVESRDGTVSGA

P-glycoprotein, sequence (P08183 whole entry): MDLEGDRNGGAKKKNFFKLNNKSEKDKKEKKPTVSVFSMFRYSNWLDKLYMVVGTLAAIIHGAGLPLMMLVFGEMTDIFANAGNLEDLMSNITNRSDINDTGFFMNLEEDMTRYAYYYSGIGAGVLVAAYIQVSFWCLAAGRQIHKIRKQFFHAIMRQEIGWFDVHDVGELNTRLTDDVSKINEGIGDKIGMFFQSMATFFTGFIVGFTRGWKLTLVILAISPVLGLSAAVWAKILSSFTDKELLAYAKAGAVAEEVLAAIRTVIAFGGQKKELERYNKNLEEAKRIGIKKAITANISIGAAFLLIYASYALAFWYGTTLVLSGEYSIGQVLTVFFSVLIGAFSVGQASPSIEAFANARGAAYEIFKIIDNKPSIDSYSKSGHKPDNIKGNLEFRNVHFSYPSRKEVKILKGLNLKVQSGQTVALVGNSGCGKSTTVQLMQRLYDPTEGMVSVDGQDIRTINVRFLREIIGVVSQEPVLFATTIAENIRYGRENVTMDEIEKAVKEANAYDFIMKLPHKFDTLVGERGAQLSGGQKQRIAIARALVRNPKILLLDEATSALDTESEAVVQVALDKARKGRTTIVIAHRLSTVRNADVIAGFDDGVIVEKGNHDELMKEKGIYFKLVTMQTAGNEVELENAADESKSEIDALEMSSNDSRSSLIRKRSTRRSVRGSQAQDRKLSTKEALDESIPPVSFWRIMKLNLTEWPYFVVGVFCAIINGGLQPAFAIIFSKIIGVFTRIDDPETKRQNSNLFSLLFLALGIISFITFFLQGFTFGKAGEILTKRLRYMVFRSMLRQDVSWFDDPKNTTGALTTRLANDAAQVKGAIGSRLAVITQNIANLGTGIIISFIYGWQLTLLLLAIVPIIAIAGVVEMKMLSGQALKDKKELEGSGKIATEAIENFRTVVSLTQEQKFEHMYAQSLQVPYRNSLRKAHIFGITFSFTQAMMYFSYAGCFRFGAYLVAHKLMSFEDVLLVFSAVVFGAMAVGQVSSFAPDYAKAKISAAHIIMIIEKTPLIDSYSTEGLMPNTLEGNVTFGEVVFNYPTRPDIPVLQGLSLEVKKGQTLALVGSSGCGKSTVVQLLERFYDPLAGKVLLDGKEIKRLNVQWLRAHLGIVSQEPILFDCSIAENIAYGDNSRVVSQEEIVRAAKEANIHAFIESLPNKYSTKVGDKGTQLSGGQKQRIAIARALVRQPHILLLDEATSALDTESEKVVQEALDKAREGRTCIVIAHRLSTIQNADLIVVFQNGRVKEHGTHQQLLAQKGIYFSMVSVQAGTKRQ

inhibition of P-glycoprotein [1]: inhibits
inhibition of human CYP3A4 [2]: inhibits
Compound: O=C(/C=C/C=C/c1ccc2c(c1)OCO2)N1CCCCC1 [Bioperine, (2E,4E)-5-(1,3-benzodioxol-5-yl)-1-(piperidin-1-yl)penta-2,4-dien-1-one]
